Data taken from US5834491A, “Bis(2-aminopyridine)s, preparation method therefor and use thereof for controlling parasitic infections” (priority 1994, dated 1998).
Counter-ions that a name gives are not always drawn. Like-named read-outs stand apart in the source and are kept apart here.

Experiments:
[1] = test system: Plasmodium falciparum; assay: Antimalarial activity in vitro towards Plasmodium falciparum ([3H]hypoxanthine incorporation, infected human erythrocytes); format: cell-based; settings: Erythrocyte, approximately 48 hours; for IC50 upper bound (active at tested concentration): Table I; for IC50: Table II
Procedure: Evaluation of the antimalarial activity in vitro is carried out according to the method of DESJARDINS, CANFIELD, HATNES and CHULAY (Antimicrob. Agents Chemother., 1979, 16, 710-718). A compound according to the invention is brought into contact for approximately 48 hours with human erythrocytes infected with Plasmodium falciparum. When a radioactive nucleic acid precursor, hypoxanthine, is added to the preparation, only erythrocytes infected with Plasmodium and not affected by the said compound incorporate this precursor. […] The results are presented in Table I below, in the form of an IC50 (or ED50) (concentration of compound capable of inhibiting in vitro the growth of the parasites by 50%).
The derivatives according to the above examples are tested at three concentrations, 100, 33 and 10 nanomolar.

[2] = Semi-chronic toxicity in vivo; settings: mouse, mice
[3] = test system: Plasmodium vinckei, petteri or chabaudi; assay: Antimalarial activity in vivo, infected mice, 4 days; parameters: species or system petteri or chabaudi (male Swiss mice); settings: ip, I.P., twice daily for 4 consecutive days
Procedure: This activity is measured according to the test described by PETERS W. (Chemotherapy and Drug resistance in Malaria, 1970). A compound according to the invention is administered for 4 consecutive days to mice infected beforehand with malaria using Plasmodium vinckei, petteri or chabaudi.
The said compound is dissolved in 0.9% aqueous NaCl solution or, where appropriate, in 10% aqueous gum arabic solution. The preparations are thus administered intraperitoneally or subcutaneously to male Swiss mice of average weight 30 to 40 g which have been infected beforehand intravenously with Plasmodium petterei or P. chabaudi (10^6 infected cells). The compound is administered twice daily for 4 consecutive days, the first injection being performed 2 hours after infestation, and the second 10 hours after. The parasitaemia is determined by means of a smear on the day following the end of the treatment.
The results are collated in Table II, in the form of an ED50 (dose of compound administered in vivo capable of a 50% inhibition of the growth of the parasites).

[4] = test system: Babesia; settings: cited from earlier work
[5] = test system: Babesia; settings: cited from earlier work; remark: listed apart in the source
[6] = cited from earlier work
[7] = cited from earlier work; remark: listed apart in the source
[8] = 33 nM, read-out: Plasmodium IC50 in vitro resp. at 33 nM
[9] = 100 nM, read-out: Plasmodium IC50 in vitro resp. 100 nM
[10] = ip, I.P., 2 injections daily for four days, read-out: Toxicity LD50 I.P.
[11] = po, P.O., semi-chronic, four days, read-out: Toxicity LD50 P.O.

Cc1ccc(=N)n(CCCCCCCCCCCCn2c(C)c(C)ccc2=N)c1C [Example 22, 1,1'-(1,12-dodecanediyl)bis(5,6-dimethyl-2(1H)-pyridinimine)]
IC50 upper bound (active at tested concentration) [1, 8]: < 33 nM
IC50 upper bound (active at tested concentration) [1, 9]: < 100 nM

Cc1ccn(CCCCCCn2ccc(C)cc2=N)c(=N)c1 [Example 14, 1,1'-(1,6-hexanediyl)bis(4-methyl-2(1H)-pyridinimine) dihydrobromide]
IC50 upper bound (active at tested concentration) [1, 8]: > 33 nM
IC50 upper bound (active at tested concentration) [1, 9]: < 100 nM

Cc1cccn(CCCCCCCCCCCCn2cccc(C)c2=N)c1=N [Example 2, 1,1'-(1,12-dodecanediyl)bis(3-methyl-2(1H)-pyridinimine) dihydrobromide]
LD50 [2, 10]: 20 mg/kg
LD50 [2, 11]: > 500 mg/kg
IC50 upper bound (active at tested concentration) [1, 8]: < 33 nM
IC50 upper bound (active at tested concentration) [1, 9]: < 100 nM
IC50 [1]: 1.8 nM
ED50 [3]: 3 mg/kg

N=c1c(OCc2ccccc2)cccn1CCCCCCCCCCCCn1cccc(OCc2ccccc2)c1=N [Example 6, 1,1'-(1,12-dodecanediyl)bis(3-phenylmethoxy-2(1H)-pyridinimine) dihydrobromide]
IC50 upper bound (active at tested concentration) [1, 8]: < 33 nM
IC50 upper bound (active at tested concentration) [1, 9]: < 100 nM

Cc1cc(C)n(CCCCCCCCCCCCn2c(C)cc(C)cc2=N)c(=N)c1 [Example 21, 1,1'-(1,12-dodecanediyl)bis(4,6-dimethyl-2(1H)-pyridinimine)]
IC50 upper bound (active at tested concentration) [1, 8]: < 33 nM
IC50 upper bound (active at tested concentration) [1, 9]: < 100 nM

N=c1cc(Br)ccn1CCCCCCCCCCCCn1ccc(Br)cc1=N [Example 10, 1,1'-(1,12-dodecanediyl)bis(4-bromo-2(1H)-pyridinimine) dihydrobromide]
IC50 upper bound (active at tested concentration) [1, 8]: < 33 nM
IC50 upper bound (active at tested concentration) [1, 9]: < 100 nM

Cc1ccc(-c2ccn(CCCCCCCCCCCCn3ccc(-c4ccc(C)cc4)cc3=N)c(=N)c2)cc1 [Example 7, 1,1'-(1,12-dodecanediyl)bis(4-(4-methyl-phenyl)-2(1H)-pyridinimine) dihydrobromide]
IC50 upper bound (active at tested concentration) [1, 8]: < 33 nM
IC50 upper bound (active at tested concentration) [1, 9]: < 100 nM

CCc1ccn(CCCCCCCCCCCCn2ccc(CC)cc2=N)c(=N)c1 [Example 24, 1,1'-(1,12-dodecanediyl)bis(4-ethyl-2(1H)-pyridinimine)]
IC50 upper bound (active at tested concentration) [1, 9]: > 100 nM

Nc1ncnc2c1ccn2[C@@H]1O[C@H](CO)[C@@H](O)[C@H]1O [tubercidin]
results in vivo against Babesia [4]: without, however, giving good results in vivo
activity in vitro against Babesia [5]: active in vitro

CCc1cccn(CCCCCCCCCCCCn2cccc(CC)c2=N)c1=N [Example 23, 1,1'-(1,12-dodecanediyl)bis(3-ethyl-2(1H)-pyridinimine)]
LD50 [2, 10]: 23 mg/kg
LD50 [2, 11]: > 400 mg/kg
IC50 upper bound (active at tested concentration) [1, 8]: > 33 nM
IC50 upper bound (active at tested concentration) [1, 9]: < 100 nM
IC50 [1]: 7.2 nM
ED50 [3]: > 5 mg/kg

Cc1ccc(=N)n(CCCCCCCCCCCCn2cc(C)ccc2=N)c1 [Example 3, 1,1'-(1,12-dodecanediyl)bis(5-methyl-2(1H)-pyridinimine) dihydrobromide]
LD50 [2, 10]: 6.5 mg/kg
LD50 [2, 11]: > 300 mg/kg
IC50 upper bound (active at tested concentration) [1, 8]: < 33 nM
IC50 upper bound (active at tested concentration) [1, 9]: < 100 nM
IC50 [1]: 0.5 nM
ED50 [3]: 3 mg/kg

Cc1cc(=N)n(CCCCCCCCCCCCn2cc(C)c(C)cc2=N)cc1C [Example 20, 1,1'-(1,12-dodecanediyl)bis(4,5-dimethyl-2(1H)-pyridinimine)]
IC50 upper bound (active at tested concentration) [1, 8]: < 33 nM
IC50 upper bound (active at tested concentration) [1, 9]: < 100 nM

CCc1ccc(=N)n(CCCCCCCCCCCCn2cc(CC)ccc2=N)c1 [Example 25, 1,1'-(1,12-dodecanediyl)bis(5-ethyl-2(1H)-pyridinimine)]
LD50 [2, 10]: 7.5 mg/kg
LD50 [2, 11]: > 200 mg/kg
IC50 upper bound (active at tested concentration) [1, 8]: < 33 nM
IC50 upper bound (active at tested concentration) [1, 9]: < 100 nM
IC50 [1]: 3.8 nM
ED50 [3]: > 5 mg/kg

Cc1ccn(CCCCCCCCCCCCn2ccc(C)c(C)c2=N)c(=N)c1C [Example 17, 1,1'-(1,12-dodecanediyl)bis(3,4-dimethyl-2(1H)-pyridinimine)]
IC50 upper bound (active at tested concentration) [1, 8]: < 33 nM
IC50 upper bound (active at tested concentration) [1, 9]: < 100 nM

C[C@@H]1CC[C@H]2[C@@H](C)C(=O)O[C@@H]3O[C@@]4(C)CC[C@@H]1[C@]32OO4 [artemisinine]
water-solubility [6]: low water-solubility

CCO[C@H]1O[C@@H]2O[C@@]3(C)CC[C@H]4[C@H](C)CC[C@@H]([C@H]1C)[C@@]24OO3 [artether]
water-solubility [6]: low water-solubility
half-life [7]: short half-life

N=c1ccc(-c2ccccc2)cn1CCCCCCCCCCCCn1cc(-c2ccccc2)ccc1=N [Example 5, 1,1'-(1,12-dodecanediyl)bis(5-phenyl-2(1H)-pyridinimine) dihydrobromide]
IC50 upper bound (active at tested concentration) [1, 8]: < 33 nM
IC50 upper bound (active at tested concentration) [1, 9]: < 100 nM

Cc1ccc(C)n(CCCCCCCCCCCCn2c(C)ccc(C)c2=N)c1=N [Example 19, 1,1'-(1,12-dodecanediyl)bis(3,6-dimethyl-2(1H)-pyridinimine)]
IC50 upper bound (active at tested concentration) [1, 8]: < 33 nM
IC50 upper bound (active at tested concentration) [1, 9]: < 100 nM

CCc1cccc(=N)n1CCCCCCCCCCCCn1c(CC)cccc1=N [Example 26, 1,1'-(1,12-dodecanediyl)bis(6-ethyl-2(1H)-pyridinimine)]
IC50 upper bound (active at tested concentration) [1, 8]: < 33 nM
IC50 upper bound (active at tested concentration) [1, 9]: < 100 nM

Cc1cccc(=N)n1CCCCCCCCCCCCn1c(C)cccc1=N [Example 4, 1,1'-(1,12-dodecanediyl)bis(6-methyl-2(1H)-pyridinimine) dihydrobromide]
IC50 upper bound (active at tested concentration) [1, 8]: < 33 nM
IC50 upper bound (active at tested concentration) [1, 9]: < 100 nM

CCc1ccn(CCCCCCCCCCCCCCCCn2ccc(CC)cc2=N)c(=N)c1 [Example 16, 1,1'-(1,16-hexadecanediyl)bis(4-ethyl-2(1H)-pyridinimine) dihydrobromide]
IC50 upper bound (active at tested concentration) [1, 8]: > 33 nM
IC50 upper bound (active at tested concentration) [1, 9]: < 100 nM

N=c1c(Cl)cc(C(F)(F)F)cn1CCCCCCCCCCCCn1cc(C(F)(F)F)cc(Cl)c1=N [Example 11, 1,1'-(1,12-dodecanediyl)bis(3-chloro-5-trifluoromethyl-2(1H)-pyridinimine) dihydrobromide]
IC50 upper bound (active at tested concentration) [1, 8]: < 33 nM
IC50 upper bound (active at tested concentration) [1, 9]: < 100 nM

CCCCc1cccn(CCCCCCCCCCCCn2cccc(CCCC)c2=N)c1=N [Example 8, 1,1'-(1,12-dodecanediyl)bis(3-n-butyl-2(1H)-pyridinimine) dihydrobromide]
IC50 upper bound (active at tested concentration) [1, 8]: < 33 nM
IC50 upper bound (active at tested concentration) [1, 9]: < 100 nM

C[C@H]1[C@@H](O)O[C@@H]2O[C@@]3(C)CC[C@H]4[C@H](C)CC[C@@H]1[C@@]24OO3 [dihydroartemisinine]
water-solubility [6]: low water-solubility
half-life [7]: short half-life

C[C@H]1[C@H](OC(=O)CCC(=O)O)O[C@@H]2O[C@@]3(C)CC[C@H]4[C@H](C)CC[C@@H]1[C@@]24OO3 [artesunate]
water-solubility [6]: low water-solubility
half-life [7]: short half-life

Cc1ccc(=N)n(CCCCCCCCn2cc(C)ccc2=N)c1 [Example 12, 1,1'-(1,8-octanediyl)bis(5-methyl-2(1H)-pyridinimine) dihydrobromide]
IC50 upper bound (active at tested concentration) [1, 8]: > 33 nM
IC50 upper bound (active at tested concentration) [1, 9]: < 100 nM

CO[C@H]1O[C@@H]2O[C@@]3(C)CC[C@H]4[C@H](C)CC[C@@H]([C@H]1C)[C@@]24OO3 [artemether]
water-solubility [6]: low water-solubility
half-life [7]: short half-life

N=c1ccc(Cl)cn1CCCCCCCCCCCCn1cc(Cl)ccc1=N [Example 9, 1,1'-(1,12-dodecanediyl)bis(5-chloro-2(1H)-pyridinimine) dihydrobromide]
LD50 [2, 10]: 10 mg/kg
LD50 [2, 11]: > 200 mg/kg
IC50 upper bound (active at tested concentration) [1, 8]: < 33 nM
IC50 upper bound (active at tested concentration) [1, 9]: < 100 nM
IC50 [1]: 1.4 nM
ED50 [3]: 4 mg/kg

Cc1ccn(CCCCCCCCn2ccc(C)cc2=N)c(=N)c1 [Example 13]
IC50 upper bound (active at tested concentration) [1, 8]: < 33 nM
IC50 upper bound (active at tested concentration) [1, 9]: < 100 nM

Cc1cc(C)c(=N)n(CCCCCCCCCCCCn2cc(C)cc(C)c2=N)c1 [Example 18, 1,1'-(1,12-dodecanediyl)bis(3,5-dimethyl-2(1H)-pyridinimine)]
IC50 upper bound (active at tested concentration) [1, 8]: < 33 nM
IC50 upper bound (active at tested concentration) [1, 9]: < 100 nM

Cc1ccn(CCCCCCCCCCCCCCCCn2ccc(C)cc2=N)c(=N)c1 [Example 15, 1,1'-(1,16-hexadecanediyl)bis(4-methyl-2(1H)-pyridiniminedihydrobromide]
IC50 upper bound (active at tested concentration) [1, 8]: < 33 nM
IC50 upper bound (active at tested concentration) [1, 9]: < 100 nM
